Results: patent publication US8614063B2, “Methods for screening for compounds for treating cancer” (PTC Therapeutics, Inc., priority 2008, dated 2013)
pEC50: −log10 of the molar value.

Assays:
[1] = CellTiter-Glo cytotoxicity assay, U937; format: cell-based; conditions: human, U937 cells (monocyte cell line); U937, relatively sensitive cell line
From the text: To evaluate cytotoxicity of the compounds in the 293H cell lines, the CellTiter-Glo® assay (Promega) is utilized. CellTiter-Glo® determines the number of viable cells in culture based on quantification of the ATP present, which signals the presence of metabolically active cells. A reduction in cellular ATP is indicative of a cytotoxic or cytostatic effect. Doxorubicin, a known cytotoxic compound, is used to address the sensitivity of the tested cell line. For relatively sensitive cell lines, such as U937 (a human monocyte cell line), the CC50 of doxorubicin ranges from 4 to 10 nM.

[2] = CellTiter-Glo cytotoxicity assay, Huh7; format: cell-based; conditions: human, Huh7 cells (hepatocellular carcinoma cell line); Huh7, intermediate level of sensitivity
[3] = test system: firefly luciferase (fLuc) reporter gene flanked by the 5′-UTR and 3′-UTR of Bmi-1 mRNA; experiment: Luciferase reporter gene assay in stable 293H cells; format: cell-based; conditions: Homo sapiens, fLuc flanked by Bmi-1 5′-UTR and 3′-UTR
From the text: A high-level expression vector, pcDNA™3.1/Hygro (Invitrogen Corp., Carlsbad, Calif.) was used for preparing the constructs comprising the luciferase gene flanked by any of the Bmi-1 5′-UTR and 3′-UTR, or the Bmi-1 5′-UTR or the Bmi-1 3′-UTR of Bmi-1 mRNA. In a pcDNA™3.1/Hygro vector, the UTRs and restriction sites associated with cloning, expressing, or cloning and expressing a gene of interest or a reporter gene were removed or replaced. For each construct containing 5′-UTR sequences, the 5′-UTR sequences with the first 21 nucleotides of Bmi-1 ORF were cloned into the vector using the appropriate restriction sites so that the first 21 nucleotides were in frame with the luciferase reporter gene.
The cells were passaged every 4 days at 1:10 dilution. Cultures were kept in a 37° C. and 5% CO2 incubator. The cells were scaled-up over a three day period before performing the assay. Two confluent T175 flasks were split into twenty T175 flasks (1:10 dilution). Cells were harvested from each confluent flask by removing all of the media and adding 4 mL of warmed trypsin to dislodge the cells. After the cells were dislodged, 16 mL of selective media was added for a final volume of 20 mL. The cells were expanded by adding 2 mL of the harvested cells into ten new T175 flasks plus 25 mL of selective media. The twenty new flasks are placed into the 37° C., 5% CO2 incubator. On the day the assay was performed, the media was removed from the flasks and 3 mL of warmed trypsin was added to dislodge the cells. After the cells were dislodged, 10 mL of nonselective media was to the flask. This was repeated for all twenty flasks and combined into one flask. 100 μL of the above cell culture plus 100 μL of Trypan Blue stain was counted on a hemocytometer.
Luciferase activity was immediately assayed using a ViewLux Imaging system (Perkin Elmer).

Bmi-1 = Bmi-1 Sandwich ELISA (endogenous Bmi-1 protein in HT-1080 cells); format: cell-based, human; conditions: 40-48 hours compound treatment
Method: In another embodiment, the levels of endogenous Bmi-1 are determined by the Bmi-1 Sandwich ELISA. A Sandwich ELISA measures the amount of antigen, in this case Bmi-1, between two layers of antibodies (i.e. capture and detection antibody). The capture antibody is immobilized in the wells of an ELISA plate and when a cell lysate or other sample is added to the plate, the specific protein of interest (Bmi-1) is bound by this capture antibody. A second antibody, called the detecting antibody, is then added, which binds to the bound protein and helps increase the signal. […] Either monoclonal or polyclonal antibodies can be used as the capture and detection antibodies in Sandwich ELISA systems. Monoclonal antibodies recognize a single epitope that allows fine detection and quantification of […] differences in antigen. A polyclonal is often used as the capture antibody to pull down as much of the antigen as possible.
HT-1080 cells were seeded at 5000 cells/well (50 μL) in 96-well tissue culture plates. After the cells become adherent (3-4 hours), 2× diluted stocks of compounds in 50 μL DMEM containing 1% DMSO (final DMSO concentration was 0.5%) were added and the plates were incubated at 37° C. under 5% CO2 for 40-48 hours
The plate was covered with a plate seal and allowed to stand overnight.
1× Lysis Buffer (40 μL) was added to each well and the plate was shaken for 5-10 minutes on an orbital shaker to allow cell lysis, then Diluent (1% BSA in PBS in 0.5% NP40) (100 μL) was added to each well.
Aliquots can be kept at 4° C. and reused after first thaw, but only for 1-2 weeks. The Bmi-1 Recombinant Protein Standard contains a GST and thus will show up on western blots around 70 Kda.
The prepared ELISA plate was washed 3× with Wash Buffer (0.05% Tween-20 in PBS). The final wash was removed from the plate and the plate was blotted dry on paper towels. Blocking Buffer (300 μL) (1% BSA in PBS) was added per well. The plate was covered with a plate seal and incubated at room temperature for 1 hour. The blocked plate was washed 3× with Wash Buffer, the final wash was removed and the plate was blotted dry on paper towels. The previously prepared samples and standards were added (at 100 μL/well) and the plate was covered with a plate seal and incubated at 4° C. overnight.
The prepared ELISA plate was removed from 4° C., incubated at room temperature for 30 minutes, then washed and blotted dry as previously described for Day 3. […] The plate was covered with a plate seal and incubated for 1.5 hrs at room temperature.
The ELISA plate was washed and blotted dry as previously described.
The plate was incubated for 20-30 minutes at room temperature in the dark, then Stop Solution (2 M sulfuric acid in water) ([…]) was added per well. The plates were read at OD450 (experimental) and OD570 (reference).

| pEC50 [3] | pEC50 (Bmi-1) | Structure (SMILES) | CC50 [1] | CC50 [2] |
| --- | --- | --- | --- | --- |
| – | – | COc1cccc2c1C(=O)c1c(O)c3c(c(O)c1C2=O)C[C@@](O)(C(=O)CO)C[C@@H]3O[C@H]1C[C@H](N)[C@H](O)[C@H](C)O1 [doxorubicin, Doxorubicin] | 0.004 to 0.01 µM | 0.07 to 0.3 µM |
| 6.28 | 6.39 | COc1cc(Br)c(Nc2nc(-c3c(C)nc4ncccn34)cs2)c(Br)c1 [Compound 1, N-(2,6-dibromo-4-methoxyphenyl)-4-(2-methylimidazo[1,2-a]pyrimidin-3-yl)thiazol-2-amine] | – | – |
| 4.75 | < 5.52 | COc1cc(F)c(Nc2nc(-c3c(C)nc4ncccn34)cs2)c(F)c1 [Compound 3, N-(2,6-difluoro-4-methoxyphenyl)-4-(2-methylimidazo[1,2-a]pyrimidin-3-yl)thiazol-2-amine] | – | – |
| 6.27 | 6.49 | Cc1cc(Br)c(Nc2nc(-c3c(C)nc4ncccn34)cs2)c(Br)c1 [Compound 4, N-(2,6-dibromo-4-methylphenyl)-4-(2-methylimidazo[1,2-a]pyrimidin-3-yl)thiazol-2-amine] | – | – |
| 5.42 | 6.41 | Cc1cc(Br)c(Nc2nc(-c3cnc4ccc(Cl)cn34)cs2)c(Br)c1 [Compound 8, 4-(6-chloroimidazo[1,2-a]pyridine-3-yl)-N-(2,6-dibromo-4-methylphenyl)thiazol-2-amine] | – | – |
| 6.10 | 6.15 | Cc1nc2ncccn2c1-c1csc(Nc2c(Br)cc(Br)cc2Br)n1 [Compound 5, 4-(2-methylimidazo[1,2-a]pyrimidin-3-yl)-N-(2,4,6-tribromophenyl)thiazol-2-amine] | – | – |
| 6.04 | 6.18 | COc1cc(Cl)c(Nc2nc(-c3c(C)nc4ncccn34)cs2)c(Cl)c1 [Compound 2, N-(2,6-dichloro-4-methoxyphenyl)-4-(2-methylimidazo[1,2-a]pyrimidin-3-yl)thiazol-2-amine] | – | – |
| 6.12 | 6.44 | COc1cc(Br)c(Nc2nc(-c3cnc4ccc(Cl)cn34)cs2)c(Br)c1 [Compound 7, 4-(6-chloroimidazo[1,2-a]pyridine-3-yl)-N-(2,6-dibromo-4-methoxyphenyl)thiazol-2-amine] | – | – |
| 5.59 | 5.77 | COCCOc1cc(Br)c(Nc2nc(-c3c(C)nc4ncccn34)cs2)c(Br)c1 [Compound 6, N-(2,6-dibromo-4-(2-methoxyethoxy)phenyl)-4-(2-methylimidazo[1,2-a]pyrimidin-3-yl)thiazol-2-amine] | – | – |
| 6.03 | 5.96 | COc1cc(Cl)c(Nc2nc(-c3cnc4ccc(Cl)cn34)cs2)c(Cl)c1 [Compound 9, 4-(6-chloroimidazo[1,2-a]pyridine-3-yl)-N-(2,6-dichloro-4-methoxyphenyl)thiazol-2-amine] | – | – |
